Measured values taken from ChEMBL document CHEMBL1201862, “PubChem BioAssay data set” (2004).
Activity calls are given as the source filed them.

What was measured:
Paired box protein Pax-8 = Paired box protein Pax-8 (Homo sapiens, UniProt Q06710); experiment: inhibitors of PAX8-driven TPO luciferase reporter, dose response, RMG-I cells, cherry-pick (AID 687027); type: functional, cell-based;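 also: luciferase reporter driven by Pax8 target thyroperoxidase promoter measured by SteadyGlo luminescence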
Sequence of Paired box protein Pax-8 (Q06710 whole entry): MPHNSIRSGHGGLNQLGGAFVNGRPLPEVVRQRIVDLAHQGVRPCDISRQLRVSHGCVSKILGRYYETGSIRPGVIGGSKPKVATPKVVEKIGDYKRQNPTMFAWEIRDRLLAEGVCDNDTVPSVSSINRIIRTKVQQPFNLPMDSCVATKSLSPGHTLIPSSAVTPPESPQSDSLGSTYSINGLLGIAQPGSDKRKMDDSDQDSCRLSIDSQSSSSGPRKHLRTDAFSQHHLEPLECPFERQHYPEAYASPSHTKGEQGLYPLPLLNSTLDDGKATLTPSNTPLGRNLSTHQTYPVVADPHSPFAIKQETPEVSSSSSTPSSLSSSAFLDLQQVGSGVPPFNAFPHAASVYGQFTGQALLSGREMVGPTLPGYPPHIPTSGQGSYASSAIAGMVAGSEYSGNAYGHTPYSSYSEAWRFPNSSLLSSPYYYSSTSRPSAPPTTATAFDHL

Genome polyprotein = Genome polyprotein (dengue virus type 2, UniProt P29990); experiment: Dengue-2 NS5 methyltransferase inhibitors, primary screen, biochemical, confirmation dose response (AID 588689); type: functional
Sequence of Genome polyprotein (P29990 2492-3391 limits assumed): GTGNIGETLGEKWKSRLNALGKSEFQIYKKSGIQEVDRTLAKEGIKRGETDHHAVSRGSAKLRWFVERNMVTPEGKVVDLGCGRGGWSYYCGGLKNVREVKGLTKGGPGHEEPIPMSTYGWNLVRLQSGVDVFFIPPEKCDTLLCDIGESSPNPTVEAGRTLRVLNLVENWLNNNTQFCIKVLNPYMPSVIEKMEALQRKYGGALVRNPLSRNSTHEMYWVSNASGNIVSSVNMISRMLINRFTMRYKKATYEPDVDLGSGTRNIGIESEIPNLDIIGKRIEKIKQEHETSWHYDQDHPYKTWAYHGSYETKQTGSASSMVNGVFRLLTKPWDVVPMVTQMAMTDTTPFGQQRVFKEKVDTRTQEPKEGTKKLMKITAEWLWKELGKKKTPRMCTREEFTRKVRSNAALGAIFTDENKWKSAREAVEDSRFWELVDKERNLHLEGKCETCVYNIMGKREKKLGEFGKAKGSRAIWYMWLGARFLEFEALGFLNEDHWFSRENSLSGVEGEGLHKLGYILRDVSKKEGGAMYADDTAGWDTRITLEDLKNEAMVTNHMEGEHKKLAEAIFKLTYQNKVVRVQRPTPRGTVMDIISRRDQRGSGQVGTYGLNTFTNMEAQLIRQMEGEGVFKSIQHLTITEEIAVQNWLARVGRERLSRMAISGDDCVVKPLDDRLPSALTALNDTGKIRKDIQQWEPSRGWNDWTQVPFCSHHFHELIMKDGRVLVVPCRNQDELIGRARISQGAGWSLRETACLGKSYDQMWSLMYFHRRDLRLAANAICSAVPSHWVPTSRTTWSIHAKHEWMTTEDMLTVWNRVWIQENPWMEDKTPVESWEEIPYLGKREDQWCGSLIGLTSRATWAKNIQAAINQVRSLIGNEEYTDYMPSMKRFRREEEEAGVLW

[1] = target: T1, Rac GTPase-activating protein 1 (Homo sapiens, UniProt Q9H0H5); experiment: MgcRacGAP GTPase-activating activity inhibitors, confirmation, biochemical, ADP Hunter fluorescence, primary and confirmatory (AID 624330); type: functional
T1 sequence (Q9H0H5 whole entry): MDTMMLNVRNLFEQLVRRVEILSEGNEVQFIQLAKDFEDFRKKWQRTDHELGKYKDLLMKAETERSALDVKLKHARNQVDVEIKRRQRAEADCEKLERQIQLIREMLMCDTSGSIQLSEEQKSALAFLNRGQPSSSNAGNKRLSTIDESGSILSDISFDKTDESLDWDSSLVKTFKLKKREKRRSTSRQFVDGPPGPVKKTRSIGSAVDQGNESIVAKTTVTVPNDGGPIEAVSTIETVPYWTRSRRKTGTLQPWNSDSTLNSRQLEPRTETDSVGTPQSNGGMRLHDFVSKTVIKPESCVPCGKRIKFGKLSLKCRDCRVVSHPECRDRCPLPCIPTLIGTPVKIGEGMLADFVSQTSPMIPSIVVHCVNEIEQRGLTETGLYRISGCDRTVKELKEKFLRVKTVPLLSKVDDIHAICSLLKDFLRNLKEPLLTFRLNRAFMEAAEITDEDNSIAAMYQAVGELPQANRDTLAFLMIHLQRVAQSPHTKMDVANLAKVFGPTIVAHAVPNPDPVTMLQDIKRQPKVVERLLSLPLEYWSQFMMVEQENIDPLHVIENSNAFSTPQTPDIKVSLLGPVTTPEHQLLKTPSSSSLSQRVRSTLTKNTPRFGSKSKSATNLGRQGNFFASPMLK

Caspase-6 = target: T2, Caspase-6 (Homo sapiens, UniProt P55212); experiment: human caspase-6 inhibitors, dose response, biochemical, VEID-R110 fluorescence, cherry-pick (AID 720632)
T2 sequence (P55212 whole entry): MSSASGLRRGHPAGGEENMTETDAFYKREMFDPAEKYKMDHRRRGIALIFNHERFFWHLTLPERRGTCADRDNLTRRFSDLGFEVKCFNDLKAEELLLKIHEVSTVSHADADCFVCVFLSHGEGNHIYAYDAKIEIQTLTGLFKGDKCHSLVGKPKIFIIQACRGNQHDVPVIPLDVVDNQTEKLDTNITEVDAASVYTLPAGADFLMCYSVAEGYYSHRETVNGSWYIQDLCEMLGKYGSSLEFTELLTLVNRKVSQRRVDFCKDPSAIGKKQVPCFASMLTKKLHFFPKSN

HEK293 = experiment: inhibitors of LMP1-driven NF-kB reporter, dose response, cell-based, HEK293, luciferase, cherry-pick (AID 588343); type: functional; conditions: Homo sapiens
INS1 = experiment: beta cell apoptosis inhibitors, cytokine rescue, dose response, luminescence, retest (AID 449756); type: functional, cell-based; conditions: Rattus norvegicus;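 also: cell death triggered by IL-1 beta plus TNF-alpha plus IFN-gamma mixture; protective hits raise ATP signal compared with cytokine alone wells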
[2] = target: T3, Tyrosyl-DNA phosphodiesterase 2 (Homo sapiens, UniProt O95551); experiment: human TDP2 enzyme inhibitors, dose response, biochemical, epi absorbance, IC50 (AID 743297)
T3 sequence (O95551 whole entry): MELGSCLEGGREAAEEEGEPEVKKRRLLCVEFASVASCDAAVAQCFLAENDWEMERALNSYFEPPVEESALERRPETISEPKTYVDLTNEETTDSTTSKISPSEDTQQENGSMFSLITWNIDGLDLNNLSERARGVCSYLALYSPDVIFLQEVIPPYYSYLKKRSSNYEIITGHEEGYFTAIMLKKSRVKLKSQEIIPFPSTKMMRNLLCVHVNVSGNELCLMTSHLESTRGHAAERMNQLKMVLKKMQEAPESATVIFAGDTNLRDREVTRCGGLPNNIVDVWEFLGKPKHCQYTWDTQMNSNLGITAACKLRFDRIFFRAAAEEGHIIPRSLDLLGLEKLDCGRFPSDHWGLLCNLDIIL

[3] = target: T4, Apoptotic protease-activating factor 1 (Homo sapiens, UniProt O14727); type: functional
T4 sequence (O14727 whole entry): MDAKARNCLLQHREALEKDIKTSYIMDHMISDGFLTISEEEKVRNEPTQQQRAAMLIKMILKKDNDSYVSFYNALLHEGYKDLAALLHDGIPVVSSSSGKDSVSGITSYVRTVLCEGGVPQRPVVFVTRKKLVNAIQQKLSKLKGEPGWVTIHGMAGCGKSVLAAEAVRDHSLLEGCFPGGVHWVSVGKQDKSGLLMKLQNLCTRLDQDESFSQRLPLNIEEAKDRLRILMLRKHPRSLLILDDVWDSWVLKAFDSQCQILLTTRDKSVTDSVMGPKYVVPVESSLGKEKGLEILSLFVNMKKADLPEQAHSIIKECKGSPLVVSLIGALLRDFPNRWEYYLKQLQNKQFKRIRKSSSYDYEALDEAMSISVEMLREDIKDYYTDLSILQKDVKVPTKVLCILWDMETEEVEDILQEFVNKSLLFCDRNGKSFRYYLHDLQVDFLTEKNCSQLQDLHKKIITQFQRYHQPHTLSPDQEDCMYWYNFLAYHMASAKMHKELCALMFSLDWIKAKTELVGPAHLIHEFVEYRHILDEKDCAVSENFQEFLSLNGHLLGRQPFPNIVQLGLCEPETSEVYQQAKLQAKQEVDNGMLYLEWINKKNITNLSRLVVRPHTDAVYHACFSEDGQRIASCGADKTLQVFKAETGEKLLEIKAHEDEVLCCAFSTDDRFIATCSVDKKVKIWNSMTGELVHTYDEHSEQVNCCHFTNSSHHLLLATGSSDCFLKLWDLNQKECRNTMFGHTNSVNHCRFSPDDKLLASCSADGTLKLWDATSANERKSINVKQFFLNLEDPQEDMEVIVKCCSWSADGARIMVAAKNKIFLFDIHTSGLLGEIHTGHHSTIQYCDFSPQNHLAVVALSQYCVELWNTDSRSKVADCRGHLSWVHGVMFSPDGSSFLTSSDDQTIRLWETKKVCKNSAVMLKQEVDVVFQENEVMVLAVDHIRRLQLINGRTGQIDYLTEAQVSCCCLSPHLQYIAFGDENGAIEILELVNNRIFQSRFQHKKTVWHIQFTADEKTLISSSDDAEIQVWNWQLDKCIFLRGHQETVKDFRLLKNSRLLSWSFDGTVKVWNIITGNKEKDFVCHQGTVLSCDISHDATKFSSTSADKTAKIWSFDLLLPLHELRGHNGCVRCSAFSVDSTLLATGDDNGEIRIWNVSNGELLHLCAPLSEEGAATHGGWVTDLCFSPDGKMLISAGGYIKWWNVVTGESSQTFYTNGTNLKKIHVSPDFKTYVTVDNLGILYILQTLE

[4] = target: Dual specificity tyrosine-phosphorylation-regulated kinase 1A (Rattus norvegicus, UniProt Q63470); type: biochemical, Homo sapiens
[5] = cytotoxicity toward NIH3T3 fibroblasts, dose response, counter-screen, cell-based, ATP luminescence, mouse fibroblasts (AID 2010); type: functional;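 also: cells exposed to compound for about 90 hours before reading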
[6] = inhibitors of intracellular T. cruzi replication, confirmation, NIH3T3 host cells, beta-gal luminescence (AID 2044); type: functional, cell-based;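 also: intracellular parasites grown in NIH/3T3 mouse fibroblasts as host cells; luminescent beta-galactosidase reporter signal from transgenic T. cruzi replicating inside host cells; inhibitors lower the luminescence signal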
[7] = target: T5, Replicative DNA helicase DnaB (Mycobacterium tuberculosis, UniProt P9WMR3); experiment: DnaB intein splicing inhibitors, dose response, biochemical, cell-free fluorescence (AID 449749); type: functional
T5 sequence (P9WMR3 whole entry): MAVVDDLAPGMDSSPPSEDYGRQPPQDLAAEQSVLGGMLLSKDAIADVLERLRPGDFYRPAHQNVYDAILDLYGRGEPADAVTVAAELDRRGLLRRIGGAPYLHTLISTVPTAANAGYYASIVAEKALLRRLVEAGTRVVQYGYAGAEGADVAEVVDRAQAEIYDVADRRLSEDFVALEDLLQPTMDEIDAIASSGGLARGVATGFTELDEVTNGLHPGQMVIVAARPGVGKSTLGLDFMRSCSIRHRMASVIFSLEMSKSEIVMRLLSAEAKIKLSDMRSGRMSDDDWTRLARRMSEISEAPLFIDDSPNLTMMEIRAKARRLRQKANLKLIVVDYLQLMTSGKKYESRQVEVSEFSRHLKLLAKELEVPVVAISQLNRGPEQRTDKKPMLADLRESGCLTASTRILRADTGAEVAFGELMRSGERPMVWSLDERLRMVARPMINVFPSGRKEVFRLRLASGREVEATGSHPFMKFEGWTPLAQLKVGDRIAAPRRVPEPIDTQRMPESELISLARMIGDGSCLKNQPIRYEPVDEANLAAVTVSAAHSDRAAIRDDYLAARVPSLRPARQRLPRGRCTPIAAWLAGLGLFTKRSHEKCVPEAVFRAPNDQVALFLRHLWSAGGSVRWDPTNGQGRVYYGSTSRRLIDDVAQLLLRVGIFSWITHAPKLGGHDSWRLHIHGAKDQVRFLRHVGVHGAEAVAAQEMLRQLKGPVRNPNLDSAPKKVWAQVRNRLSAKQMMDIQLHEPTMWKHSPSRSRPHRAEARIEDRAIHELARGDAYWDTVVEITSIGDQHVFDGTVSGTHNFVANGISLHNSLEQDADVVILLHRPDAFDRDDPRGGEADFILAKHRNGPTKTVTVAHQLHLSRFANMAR

Protein RecA = target: T6, Protein RecA (Mycobacterium tuberculosis, UniProt P9WHJ3); experiment: Fluorescence Cell-Free Homogeneous Dose Retest to Identify Inhibitors of RecA-Intein Splicing Activity. [Related pubchem assays (depositor defined):AID2097, AID2223, AID489010, AID492950]; type: functional
T6 sequence (P9WHJ3 whole entry): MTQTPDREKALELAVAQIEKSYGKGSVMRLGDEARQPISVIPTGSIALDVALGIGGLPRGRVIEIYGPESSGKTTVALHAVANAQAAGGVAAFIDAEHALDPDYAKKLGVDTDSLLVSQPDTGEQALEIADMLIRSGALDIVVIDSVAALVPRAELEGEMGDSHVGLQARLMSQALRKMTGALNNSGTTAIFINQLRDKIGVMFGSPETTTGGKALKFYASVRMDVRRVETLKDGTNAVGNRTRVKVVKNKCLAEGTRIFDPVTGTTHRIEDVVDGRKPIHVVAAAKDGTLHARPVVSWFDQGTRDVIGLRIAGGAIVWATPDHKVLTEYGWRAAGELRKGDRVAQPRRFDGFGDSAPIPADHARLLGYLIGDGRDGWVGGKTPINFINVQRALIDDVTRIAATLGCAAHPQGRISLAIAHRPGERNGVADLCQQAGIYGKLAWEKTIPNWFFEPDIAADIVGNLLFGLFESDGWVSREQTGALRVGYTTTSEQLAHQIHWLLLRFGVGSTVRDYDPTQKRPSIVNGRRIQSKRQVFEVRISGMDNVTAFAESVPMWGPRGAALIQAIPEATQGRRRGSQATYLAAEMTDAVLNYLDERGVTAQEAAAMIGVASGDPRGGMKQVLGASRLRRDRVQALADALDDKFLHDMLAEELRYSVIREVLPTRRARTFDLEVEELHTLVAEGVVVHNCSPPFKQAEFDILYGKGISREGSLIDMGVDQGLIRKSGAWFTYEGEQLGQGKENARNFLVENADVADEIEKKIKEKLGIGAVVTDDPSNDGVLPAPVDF

[8] = target: T7, Endoribonuclease toxin MazF (Escherichia coli K-12, UniProt P0AE70); experiment: MazF toxin RNase activators, dose response, biochemical, fluorescence, single-stranded RNA substrate, uHTS hits (AID 588481); type: functional
T7 sequence (P0AE70 whole entry): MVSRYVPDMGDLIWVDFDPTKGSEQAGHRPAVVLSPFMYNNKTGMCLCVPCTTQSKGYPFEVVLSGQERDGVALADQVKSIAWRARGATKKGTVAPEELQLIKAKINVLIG

[9] = target: T7, Endoribonuclease toxin MazF; experiment: fluorescent RNA oligo signal without MazF, dose response, counter-screen for MazEF activator project, biochemical, fluorescence, single-stranded RNase substrate (AID 588502); type: functional

Nc1nc(Sc2ccc([N+](=O)[O-])c3nonc23)c2[nH]cnc2n1
AC50 (Paired box protein Pax-8): 2.17 µM (active) | IC50 (Genome polyprotein): 16 µM (active) | IC50 [1]: 49.7 µM (active) | AC50 (Caspase-6): 5.68 µM (active)

CC(C)Nc1nnc(SCC(=O)c2c(N)n(Cc3ccccc3)c(=O)n(C)c2=O)s1
AC50 (HEK293): 101 µM (active)

Cc1ccc(NC2=C(N3CCCCC3)C(=O)c3ccccc3C2=O)cc1
AC50 (INS1): 0.489 µM (active) | IC50 [2]: > 128 µM (inactive) | IC50 [3]: 4.88 µM (active) | AC50 [4]: 11 µM (active) | EC50 [5]: > 30 µM (not active) | EC50 [6]: 0.629 µM (active) | AC50 [7]: 7.31 µM (active) | EC50 (Protein RecA): 0.619 µM (active)

Cc1ccc(-n2nnnc2SCC(=O)c2c(N)n(C3CC3)c(=O)[nH]c2=O)cc1C
EC50 [8]: > 99 µM (inactive) | EC50 [9]: > 99 µM (inactive)
